Experimental data taken from patent US8829007B2 (priority 2009, dated 2014).
Where two headings read alike, the source gives them in different places.

Tested on: influenza A virus (A/PR/8/34)
Experiment: microbe, parasite or virus in culture
Assay type: cell-based
Settings: read-out: IC50
[1] = Influenza A virus, PR/8, MDCK, mean all, A/PR/8/34 infected MDCK cells, CPE assay
[2] = mean all, A/PR/8/34 infected MDCK cells, CPE assay

Q: With `CCCC(=O)N[C@@H]1CCCC[C@H]1Nc1nc(-c2c[nH]c3ncccc23)ncc1F` [Compound 358, N-[(1R,2R)-2-[[5-fluoro-2-(1H-pyrrolo[2,3-b]pyridin-3-yl)pyrimidin-4-yl]amino]cyclohexyl]butanamide] as the molecule, how does the IC50 [1] read?
A: Its IC50 is greater than 20 µM.

Q: How did the IC50 [1] turn out when `O=C(N[C@@H]1CCCC[C@H]1Nc1nc(-c2c[nH]c3ncccc23)ncc1F)C1CCCC1` [Compound 359, N-[(1R,2R)-2-[[5-fluoro-2-(1H-pyrrolo[2,3-b]pyridin-3-yl)pyrimidin-4-yl]amino]cyclohexyl]cyclopentanecarboxamide] was run?
A: The IC50 was greater than 20 µM.

Q: Which IC50 [1] does the source give for `O=C(N[C@@H]1CCCC[C@H]1Nc1nc(-c2c[nH]c3ncccc23)ncc1F)c1ccccc1` [Compound 360, N-[(1R,2R)-2-[[5-fluoro-2-(1H-pyrrolo[2,3-b]pyridin-3-yl)pyrimidin-4-yl]amino]cyclohexyl]benzamide] here?
A: The IC50 was greater than 20 µM.

Q: How did the IC50 [1] turn out when `CS(=O)(=O)N[C@@H]1CCCC[C@H]1Nc1nc(-c2c[nH]c3ncccc23)ncc1F` [Compound 361, N-[(1R,2R)-2-[[5-fluoro-2-(1H-pyrrolo[2,3-b]pyridin-3-yl)pyrimidin-4-yl]amino]cyclohexyl]methanesulfonamide] was run?
A: The IC50 was greater than 20 µM.

Q: How did the IC50 [1] turn out when `CCCS(=O)(=O)N[C@@H]1CCCC[C@H]1Nc1nc(-c2c[nH]c3ncccc23)ncc1F` [Compound 362, N-[(1R,2R)-2-[[5-fluoro-2-(1H-pyrrolo[2,3-b]pyridin-3-yl)pyrimidin-4-yl]amino]cyclohexyl]propane-1-sulfonamide] was run?
A: Its IC50 is greater than 20 µM.

Q: With `O=C(NC1CCCCC1Nc1nc(-c2c[nH]c3ncc(Cl)cc23)ncc1F)C1CCCC1` (stereo not drawn) [Compound 364, N-[(trans-2-[[2-(5-chloro-1H-pyrrolo[2,3-b]pyridin-3-yl)-5-fluoro-pyrimidin-4-yl]amino]cyclohexyl]cyclopentanecarboxamide] as the molecule, how does the IC50 [1] read?
A: The IC50 was greater than 20 µM.

Q: `CCCC(=O)N[C@@H]1CCCC[C@H]1Nc1nc(-c2c[nH]c3ncc(Cl)cc23)ncc1F` [Compound 369, N-[(1R,2R)-2-[[2-(5-chloro-1H-pyrrolo[2,3-b]pyridin-3-yl)-5-fluoro-pyrimidin-4-yl]amino]cyclohexyl]butanamide] was tested. Which IC50 [1] did it give?
A: The IC50 was greater than 20 µM.

Q: `CCCNC(=O)N[C@@H]1CCCC[C@H]1Nc1nc(-c2c[nH]c3ncccc23)ncc1F` [Compound 370, 1-[(1R,2R)-2-[[5-fluoro-2-(1H-pyrrolo[2,3-b]pyridin-3-yl)pyrimidin-4-yl]amino]cyclohexyl]-3-propyl-urea] was tested. Which IC50 [1] did it give?
A: The IC50 was greater than 20 µM.

Q: For `CC(C)NC(=O)N1CCCC[C@@H]1CNc1nc(-c2c[nH]c3ncccc23)ncc1F` [Compound 371], which IC50 [1] is on record?
A: The IC50 was greater than 20 µM.

Q: For `CNC(=O)N1CCCC[C@@H]1CNc1nc(-c2c[nH]c3ncccc23)ncc1F` [Compound 374, (R)-2-((5-fluoro-2-(1H-pyrrolo[2,3-b]pyridin-3-yl)pyrimidin-4-ylamino)methyl)-N-methylpiperidine-1-carboxamide], which IC50 [1] is on record?
A: The IC50 was greater than 20 µM.

Q: `CN1CCC(Nc2nc(-c3c[nH]c4ncccc34)ncc2F)C1=O` (centres unmarked) [Compound 376] was tested. Which IC50 [2] did it give?
A: Its IC50 is 5 to 20 µM.

Q: Which IC50 [2] does the source give for `O=C1NCCC1Nc1nc(-c2c[nH]c3ncccc23)ncc1F` (centres unmarked) [Compound 377] here?
A: The IC50 was greater than 20 µM.

Q: `O=C1CCC(CNc2nc(-c3c[nH]c4ncc(Cl)cc34)ncc2F)CN1` (centres unmarked) [Compound 378] was tested. Which IC50 [2] did it give?
A: Its IC50 is greater than 20 µM.

Q: For `O=C1NCCC1Nc1nc(-c2c[nH]c3ncc(Cl)cc23)ncc1F` (centres unmarked) [Compound 380], which IC50 [1] is on record?
A: The IC50 was 5 to 20 µM.

Q: Which IC50 [1] does the source give for `CS(=O)(=O)N1CCCC[C@H]1CNc1nc(-c2c[nH]c3ncc(Cl)cc23)ncc1F` [Compound 384, (S)-2-(5-chloro-1H-pyrrolo[2,3-b]pyridin-3-yl)-5-fluoro-N-((1-(methylsulfonyl)-piperidin-2-yl)methyl)pyrimidin-4-amine] here?
A: Its IC50 is less than 5 µM.

Q: `O=S(=O)(C1CC1)N1CCCC[C@H]1CNc1nc(-c2c[nH]c3ncc(Cl)cc23)ncc1F` [Compound 386, (S)-2-(5-chloro-1H-pyrrolo[2,3-b]pyridin-3-yl)-5-fluoro-N-((1-(cyclopropylsulfonyl)-piperidin-2-yl)methyl)pyrimidin-4-amine] was tested. Which IC50 [1] did it give?
A: The IC50 was less than 5 µM.

Q: How did the IC50 [2] turn out when `O=S(=O)(CC(F)(F)F)N1CCCC[C@@H]1CNc1nc(-c2c[nH]c3ncc(Cl)cc23)ncc1F` [Compound 387] was run?
A: The IC50 was 5 to 20 µM.

Q: For `Fc1cnc(-c2c[nH]c3ncc(Cl)cc23)nc1NCC1CN(Cc2ccccc2)CCO1` (centres unmarked) [Compound 388, N-((4-benzylmorpholin-2-yl)methyl)-2-(5-chloro-1H-pyrrolo[2,3-b]pyridin-3-yl)-5-fluoropyrimidin-4-amine], which IC50 [1] is on record?
A: The IC50 was greater than 20 µM.

Q: Which IC50 [1] does the source give for `CCS(=O)(=O)N1CC[C@H](Nc2nc(-c3c[nH]c4ncc(Cl)cc34)ncc2F)C1` [Compound 399, (S)-2-(5-chloro-1H-pyrrolo[2,3-b]pyridin-3-yl)-N-(1-(ethylsulfonyl)pyrrolidin-3-yl)-5-fluoropyrimidin-4-amine] here?
A: Its IC50 is less than 5 µM.

Q: With `CC(C)S(=O)(=O)N1CC[C@H](Nc2nc(-c3c[nH]c4ncc(Cl)cc34)ncc2F)C1` [Compound 400, (5)-2-(5-chloro-1H-pyrrolo[2,3-b]pyridin-3-yl)-5-fluoro-N-(1-(isopropylsulfonyl)pyrrolidin-3-yl)pyrimidin-4-amine] as the molecule, how does the IC50 [1] read?
A: Its IC50 is 5 to 20 µM.

Q: With `O=S(=O)(C1CC1)N1CC[C@H](Nc2nc(-c3c[nH]c4ncc(Cl)cc34)ncc2F)C1` [Compound 401, (S)-2-(5-chloro-1H-pyrrolo[2,3-b]pyridin-3-yl)-N-(1-(cyclopropylsulfonyl)pyrrolidin-3-yl)-5-fluoropyrimidin-4-amine] as the molecule, how does the IC50 [1] read?
A: The IC50 was 5 to 20 µM.

Q: For `CCCCS(=O)(=O)N1CC[C@H](Nc2nc(-c3c[nH]c4ncc(Cl)cc34)ncc2F)C1` [Compound 402, (S)—N-(1-(butylsulfonyl)pyrrolidin-3-yl)-2-(5-chloro-1H-pyrrolo[2,3-b]pyridin-3-yl)-5-fluoropyrimidin-4-amine], which IC50 [1] is on record?
A: Its IC50 is 5 to 20 µM.

Q: `O=S(=O)(C1CCCC1)N1CC[C@H](Nc2nc(-c3c[nH]c4ncc(Cl)cc34)ncc2F)C1` [Compound 403, (S)-2-(5-chloro-1H-pyrrolo[2,3-b]pyridin-3-yl)-N-(1-(cyclopentylsulfonyl)pyrrolidin-3-yl)-5-fluoropyrimidin-4-amine] was tested. Which IC50 [1] did it give?
A: The IC50 was 5 to 20 µM.

Q: `CCCCS(=O)(=O)N1CCC(Nc2nc(-c3c[nH]c4ncc(Cl)cc34)ncc2F)C1` (centres unmarked) [Compound 406] was tested. Which IC50 [2] did it give?
A: Its IC50 is greater than 20 µM.

Q: With `CCS(=O)(=O)N1CCC(Nc2nc(-c3c[nH]c4ncc(Cl)cc34)ncc2F)C1` (centres unmarked) [Compound 407] as the molecule, how does the IC50 [2] read?
A: Its IC50 is greater than 20 µM.

Q: Which IC50 [2] does the source give for `CC(C)S(=O)(=O)N1CCC(Nc2nc(-c3c[nH]c4ncc(Cl)cc34)ncc2F)C1` (centres unmarked) [Compound 408] here?
A: The IC50 was greater than 20 µM.

Q: For `CCCS(=O)(=O)N1CC[C@H](Nc2nc(-c3c[nH]c4ncc(Cl)cc34)ncc2F)C1` [Compound 410, (S)-2-(5-chloro-1H-pyrrolo[2,3-b]pyridin-3-yl)-5-fluoro-N-(1-(propylsulfonyl)pyrrolidin-3-yl)pyrimidin-4-amine], which IC50 [1] is on record?
A: The IC50 was 5 to 20 µM.

Q: With `Fc1cnc(-c2c[nH]c3ncc(Cl)cc23)nc1N[C@H]1CCN(CC2CC2)C1` [Compound 415, (S)-2-(5-chloro-1H-pyrrolo[2,3-b]pyridin-3-yl)-N-(1-(cyclopropylmethyl)pyrrolidin-3-yl)-5-fluoropyrimidin-4-amine] as the molecule, how does the IC50 [1] read?
A: The IC50 was greater than 20 µM.

Q: `O=C(OC1CCOC1)N1CCC(Nc2nc(-c3c[nH]c4ncc(Cl)cc34)ncc2F)CC1` (centres unmarked) [Compound 420] was tested. Which IC50 [2] did it give?
A: Its IC50 is greater than 20 µM.

Q: For `O=C(OC1CCOC1)N1CCC(Nc2nc(-c3c[nH]c4ncc(Cl)cc34)ncc2F)C1` (centres unmarked) [Compound 421], which IC50 [2] is on record?
A: The IC50 was 5 to 20 µM.

Q: `O=C(OC1CCOC1)N1CC(Nc2nc(-c3c[nH]c4ncc(Cl)cc34)ncc2F)C1` [Compound 422, (S)-tetrahydrofuran-3-yl 3-((2-(5-chloro-1H-pyrrolo[2,3-b]pyridin-3-yl)-5-fluoropyrimidin-4-ylamino)azetidine-1-carboxylate] was tested. Which IC50 [1] did it give?
A: Its IC50 is greater than 20 µM.

Q: `CCCS(=O)(=O)N1CC(Nc2nc(-c3c[nH]c4ncc(Cl)cc34)ncc2F)C1` [Compound 423] was tested. Which IC50 (Influenza A virus, PR/8, MDCK) did it give?
A: The IC50 was greater than 20 µM.

Q: With `O=C(O[C@H]1CCOC1)N1CC[C@@H](Nc2nc(-c3c[nH]c4ncc(Cl)cc34)ncc2F)C1` [Compound 424] as the molecule, how does the IC50 [1] read?
A: Its IC50 is greater than 20 µM.

Q: With `CN(C)C(=O)N[C@H]1CCCC[C@@H]1Nc1nc(-c2c[nH]c3ncc(Cl)cc23)ncc1F` [Compound 427, 3-[(1S,2S)-2-[[2-(5-chloro-1H-pyrrolo[2,3-b]pyridin-3-yl)-5-fluoro-pyrimidin-4-yl]amino]cyclohexyl]-1,1-dimethyl-urea] as the molecule, how does the IC50 [1] read?
A: The IC50 was greater than 20 µM.

Q: With `CC(=O)NC1CCCCC1Nc1nc(-c2c[nH]c3ncc(Cl)cc23)ncc1F` (centres unmarked) [Compound 429] as the molecule, how does the IC50 [2] read?
A: The IC50 was 5 to 20 µM.

Q: `CC(C)C(=O)N1CCC[C@H](Nc2nc(-c3c[nH]c4ncc(Cl)cc34)ncc2F)C1` [Compound 436] was tested. Which IC50 [1] did it give?
A: Its IC50 is less than 5 µM.

Q: For `CC(C)(C)C(=O)N1CCC[C@H](Nc2nc(-c3c[nH]c4ncc(Cl)cc34)ncc2F)C1` [Compound 437], which IC50 [1] is on record?
A: Its IC50 is greater than 20 µM.

Q: Which IC50 [1] does the source give for `CCOC(=O)N1CCC[C@H](Nc2nc(-c3c[nH]c4ncc(Cl)cc34)ncc2F)C1` [Compound 441] here?
A: Its IC50 is 5 to 20 µM.

Q: For `CC(C)OC(=O)N1CCC[C@H](Nc2nc(-c3c[nH]c4ncc(Cl)cc34)ncc2F)C1` [Compound 442], which IC50 [1] is on record?
A: Its IC50 is 5 to 20 µM.

Q: `CC1(C(=O)N2CCC[C@H](Nc3nc(-c4c[nH]c5ncc(Cl)cc45)ncc3F)C2)CC1` [Compound 445] was tested. Which IC50 [1] did it give?
A: The IC50 was less than 5 µM.

Q: `CC(C)NC(=O)N1CCOC(CNc2nc(-c3c[nH]c4ncc(Cl)cc34)ncc2F)C1` (centres unmarked) [Compound 446, 2-((2-(5-chloro-1H-pyrrolo[2,3-b]pyridin-3-yl)-5-fluoropyrimidin-4-ylamino)methyl)-N-isopropylmorpholine-4-carboxamide] was tested. Which IC50 [1] did it give?
A: Its IC50 is greater than 20 µM.

Q: How did the IC50 [1] turn out when `CC(C)OC(=O)N1CCOC(CNc2nc(-c3c[nH]c4ncc(Cl)cc34)ncc2F)C1` (centres unmarked) [Compound 447, Isopropyl 2-((2-(5-chloro-1H-pyrrolo[2,3-b]pyridin-3-yl)-5-fluoropyrimidin-4-ylamino)methyl)morpholine-4-carboxylate] was run?
A: Its IC50 is greater than 20 µM.

Q: For `CC(C)S(=O)(=O)N1CCOC(CNc2nc(-c3c[nH]c4ncc(Cl)cc34)ncc2F)C1` (centres unmarked) [Compound 448, 2-(5-chloro-1H-pyrrolo[2,3-b]pyridin-3-yl)-5-fluoro-N-((4-(isopropylsulfonyl)morpholin-2-yl)methyl)pyrimidin-4-amine], which IC50 [1] is on record?
A: Its IC50 is greater than 20 µM.

Q: Which IC50 [1] does the source give for `CCC(=O)N1CCOC(CNc2nc(-c3c[nH]c4ncc(Cl)cc34)ncc2F)C1` (centres unmarked) [Compound 449, 1-(2-((2-(5-chloro-1H-pyrrolo[2,3-b]pyridin-3-yl)-5-fluoropyrimidin-4-ylamino)methyl)morpholino)propan-1-one] here?
A: The IC50 was 5 to 20 µM.
